Publication PMC10287695, “Non-covalent inhibitors of thioredoxin glutathione reductase with schistosomicidal activity in vivo” (Nature Communications, 2023)
Values joined by “and” are separate entries in the source; they are usually repeats but may differ in a detail not shown here. Identical values can stand only once. “Also recorded” adds a separate entry of the source. Like-named read-outs stand apart in the source and are kept apart here.

What was measured:
[1] = Pharmacokinetics, intraperitoneal administration; type: in vivo, Swiss Webster mice; conditions: for Plasma concentration, single animal / concentration at 0 h / concentration at 0.5 h / concentration at 1 h / concentration at 2 h: IP; for Plasma concentration, single animal / concentration at 0 h / concentration at 0.5 h / concentration at 1 h / concentration at 2 h / concentration at 30 min / concentration at 60 min / concentration at 120 min / plasma concentration: 100 mg/kg; for concentration at 0 h / concentration at 0.5 h / concentration at 1 h / concentration at 2 h / concentration at 30 min / concentration at 60 min / concentration at 120 min / Cmax / half-life: male, Swiss Webster, mouse, plasma, ip; for concentration at 30 min / concentration at 60 min / concentration at 120 min / Cmax / half-life / overt toxicity / plasma concentration: mice; for Cmax: at 30 min; for half-life: estimated from the time points available
Protocol: All the mice were weighed and dosed intraperitoneally accordingly at 100 mg/kg body weight with freshly prepared 1 or 2.
Blood was collected by submandibular puncture into 1 mL Eppendorf tubes, the plasma was separated and stored in −80 °C until used. A 25 µl of mouse plasma was transferred into 1.5 ml centrifuge tube which was spiked with 2.5 µl of internal standard (IS) working standard solution […] to get final IS contraction of 250 ng/ml and the solution was vortexed. An aliquot of 75 µl of methanol/0.15 formic acid was added and gently vortexed for 2 min. The samples then centrifuged for 20 min at 4 °C and 15000 × g. A clear supernatant (50 µl) with added 50 µl mobile phase (reconstitution solution) from each extraction was then transferred into a 250 µl autosampler vial. A 3 µl aliquot of each sample was injected for LC-MSMS analysis.
The total run time of 2 min with an injection volume of 3 μl at column temperature 40 °C were efficient to achieve accepted results.
A Shimadzu LC20AD, Ultra Performance Liquid Chromatography (UPLC) system (Shimadzu Corporation, Kyoto, Japan) equipped with Shimadzu 8040 triple quadrupole (QqQ) mass analyzer (Shimadzu Corporation, Kyoto, Japan) with an electrospray ionization source (ESI) operated in the positive charge mode for the quantification of 1 and 2.

[2] = Reactivity with GSH or N-Boc protected methyl ester of selenocysteine (LCMS); type: physicochemical; conditions: up to 120 h
Protocol: Dimethyl bis(N-tert-butoxycarbonyl)-L-selenocystine was synthesized as reported previously. (N-tert-butoxycarbonyl)-L-selenocysteine methyl ester was prepared in situ[86] in methanol or phosphate buffer. Compound 2 was added to the solution of (N-tert-butoxycarbonyl)-L-selenocysteine methyl ester in either methanol or phosphate buffer and incubated for 40 min, 24 h, and 120 h under N2 gas balloon. Additional amounts of NaBH4 were added at 12 h and 96 h to maintain the reducing conditions. Aliquots taken from methanol solution at each of the time points were concentrated in vacuo, mixed with water, and extracted with ethyl acetate. The organic layer was separated, concentrated in vacuo, re-dissolved in methanol and analyzed by LCMS. Aliquots taken from the phosphate buffer solution were extracted with ethyl acetate. The resulting organic layer was separated and concentrated in vacuo. The residue was re-dissolved in methanol and analyzed by LCMS. […] No additional spots were detected by TLC as well.
Covalent TGR inhibitor TRi-1 was used as a positive control for the reaction with (N-tert-butoxycarbonyl)-L-selenocysteine methyl ester. The reactivity of TRi-1 was tested similarly as described above for compound 2.

[3] = Pharmacokinetics, oral gavage; conditions: for plasma concentration, individual animals (Animal 1, Animal 2) / plasma concentration: listed as 1 (8VP101); for plasma concentration, individual animals (Animal 1, Animal 2) / concentration at 30 min / concentration at 60 min / concentration at 120 min / concentration at 0.5 h / concentration at 1 h / concentration at 2 h / plasma concentration: 200 mg/kg; for concentration at 30 min / concentration at 60 min / concentration at 120 min / concentration at 0.5 h / concentration at 1 h / concentration at 2 h: female, Swiss Webster, mouse, plasma, po
Protocol: Tween 80 and saline were then added to the DMSO solution in that order. Final solution was 10% DMSO:10% Tween 80:80% saline.
Swiss Webster female mice were purchased from Charles River Laboratories (Wilmington, MA, USA). […] All the mice were weighed and gavaged orally at 200 mg/kg body weight with freshly prepared 2. Blood was collected by submandibular puncture at 0, 0.25, 0.5, 1, and 2 h.
Samples were deproteinized with 150 µl of internal standard solution. This mixture was vortexed to mix properly and centrifuged at 13000 × g for 30 min. 160 µl of the supernatant was transferred to another set of tubes and dried using a nitrogen evaporator. Samples were reconstituted in 100 µl of methanol, vortexed and centrifuged at 13000 × g for 20 min. 30 µl of supernatant was transferred to autosampler vials.
Experiments were carried out on ThermoFisher Scientific Vanquish high-performance liquid chromatography connected to ThermoFisher Scientific TSQ Quantis – triple quadrupole mass spectrometer. The analyte molecules were separated on Phenomenex kinetex C18 column 100 Å (2.6 μm, 50 × 3 mm) with the mobile phase composed of Water/0.1% formic acid (A) and Acetonitrile (B) at the flow rate of 0.5 ml/min with the column temperature maintained at 40 °C and the sample of injection was 5 µl.
Quantification was performed using electrospray in the positive mode with the spray voltage of 3500 V. Sheath gas (Arb) 20, Auxiliary gas (Arb) 8 and Sweep gas (Arb) 5.7.

[4] = 0 Hour, read-out: Plasma concentration, Average
[5] = 0 Hour, read-out: Plasma concentration, single animal
[6] = 0.5 Hour, read-out: Plasma concentration, Average
[7] = 0.5 Hour, read-out: Plasma concentration, single animal
[8] = 1 Hour, read-out: Plasma concentration, Average
[9] = 1 Hour, read-out: Plasma concentration, single animal
[10] = 2 Hour, read-out: Plasma concentration, Average
[11] = 2 Hour, read-out: Plasma concentration, single animal

Cc1oc(-c2ccc3c(c2)OCO3)nc1CN[C@@H]1C[C@@H]2C[C@H]([C@H]1C)C2(C)C [Compound 1]
Plasma concentration, single animal ([1]; 0 Hour, listed as 1 (8VP70)): 0.000 uM (2×) and 0.000 ug/mL (2×)
Plasma concentration, single animal ([1]; 0.5 Hour, listed as 1 (8VP70)): 4.093 uM and 4.069 uM and 1.508 ug/mL and 1.499 ug/mL
Plasma concentration, single animal ([1]; 1 Hour, listed as 1 (8VP70)): 3.040 uM and 3.641 uM and 1.120 ug/mL and 1.342 ug/mL
Plasma concentration, single animal ([1]; 2 Hour, listed as 1 (8VP70)): 2.409 uM and 2.589 uM and 0.888 ug/mL and 0.954 ug/mL
concentration at 0 h [1, 4]: 0 nM and 0 ng/mL
concentration at 0 h [1, 5]: 0 nM and 0 ng/mL
concentration at 0.5 h [1, 6]: 4.11 µM and 1510 ng/mL
concentration at 0.5 h [1, 7]: 4.16 µM and 1530 ng/mL
concentration at 1 h [1, 8]: 3.28 µM and 1210 ng/mL
concentration at 1 h [1, 9]: 3.16 µM and 1160 ng/mL
concentration at 2 h [1, 10]: 2.35 µM and 865 ng/mL
concentration at 2 h [1, 11]: 2.05 µM and 754 ng/mL
concentration at 30 min ([1]; 100 mg/kg i.p., 30 min): 4.11 ± 0.047 µM
concentration at 60 min ([1]; 100 mg/kg i.p., 60 min): 3.28 ± 0.318 µM
concentration at 120 min ([1]; 100 mg/kg i.p., 120 min): 2.35 ± 0.277 µM
concentration at 30 min ([1]; intraperitoneal, 30 min): 1510 ± 17 ng/mL
concentration at 60 min ([1]; intraperitoneal, 60 min): 1210 ± 117 ng/mL
concentration at 120 min ([1]; intraperitoneal, 120 min): 865 ± 102 ng/mL
Cmax ([1]; 100 mg/kg i.p.): 4.1 µM
half-life ([1]; 100 mg/kg i.p.): ~1.5 h
overt toxicity ([1]; 100 mg/kg i.p.): no overt toxicity
plasma concentration ([1]; 100 mg/kg i.p., 30 min): 4.1 µM
plasma concentration ([1]; 100 mg/kg i.p., 60 min): 3.3 µM
plasma concentration ([1]; 100 mg/kg i.p., 120 min): 2.4 µM

CCc1ccccc1-c1nc(CN[C@@H]2C[C@@H]3C[C@H]([C@H]2C)C3(C)C)c(C)o1 [Compound 2]
reaction with thiol or selenol groups in GSH or protected selenocysteine [2]: No additional peaks were detected; also recorded: no reaction
plasma concentration, individual animals (Animal 1, Animal 2) ([3]; PO 200 mg/kg, 0.5 Hour): 0.255 ug/mL and 0.704 uM
plasma concentration, individual animals (Animal 1, Animal 2) ([3]; PO 200 mg/kg, 1 Hour): 0.273 ug/mL and 0.767 uM
plasma concentration, individual animals (Animal 1, Animal 2) ([3]; PO 200 mg/kg, 2 Hour): 0.135 ug/mL and 0.409 uM
concentration at 30 min ([3]; Plasma concentration, mice, oral gavage, 30 min): 714 nM and 252 ng/mL
concentration at 60 min ([3]; Plasma concentration, mice, oral gavage, 60 min): 771 nM and 272 ng/mL
concentration at 120 min ([3]; Plasma concentration, mice, oral gavage, 120 min): 396 nM and 140 ng/mL
concentration at 0.5 h ([3]; plasma concentration, Average, PO 200 mg/kg, 0.5 Hour): 252 ng/mL
concentration at 1 h ([3]; plasma concentration, Average, PO 200 mg/kg, 1 Hour): 272 ng/mL
concentration at 2 h ([3]; plasma concentration, Average, PO 200 mg/kg, 2 Hour): 140 ng/mL
concentration at 0.5 h ([3]; plasma concentration, individual animals (Animal 1, Animal 2), PO 200 mg/kg, 0.5 Hour): 724 nM and 248 ng/mL
concentration at 1 h ([3]; plasma concentration, individual animals (Animal 1, Animal 2), PO 200 mg/kg, 1 Hour): 774 nM and 270 ng/mL
concentration at 2 h ([3]; plasma concentration, individual animals (Animal 1, Animal 2), PO 200 mg/kg, 2 Hour): 383 nM and 144 ng/mL
concentration at 30 min ([3]; plasma concentration, mice, 200 mg/kg p.o., 30 min): 0.71 µM
concentration at 60 min ([3]; plasma concentration, mice, 200 mg/kg p.o., 60 min): 0.77 µM
concentration at 120 min ([3]; plasma concentration, mice, 200 mg/kg p.o., 120 min): 0.4 µM
plasma concentration ([3]; mice, 200 mg/kg p.o., 30 min): 0.714 µM
plasma concentration ([3]; mice, 200 mg/kg p.o., 60 min): 0.771 µM
plasma concentration ([3]; mice, 200 mg/kg p.o., 120 min): 0.396 µM
maximum plasma concentration ([3]; mice, PO 200 mg/kg): 0.77 µM
Plasma concentration, single animal ([1]; 0 Hour, listed as 2 (8VP101)): 0.000 uM (2×) and 0.000 ug/mL (2×)
Plasma concentration, single animal ([1]; 0.5 Hour, listed as 2 (8VP101)): 4.991 uM and 5.302 uM and 1.758 ug/mL and 1.868 ug/mL
Plasma concentration, single animal ([1]; 1 Hour, listed as 2 (8VP101)): 4.630 uM and 3.814 uM and 1.631 ug/mL and 1.343 ug/mL
Plasma concentration, single animal ([1]; 2 Hour, listed as 2 (8VP101)): 3.386 uM and 3.401 uM and 1.193 ug/mL and 1.198 ug/mL
concentration at 0 h [1, 4]: 0 nM and 0 ng/mL
concentration at 0 h [1, 5]: 0 nM and 0 ng/mL
concentration at 0.5 h [1, 6]: 4.8 µM and 1690 ng/mL
concentration at 0.5 h [1, 7]: 4.12 µM and 1450 ng/mL
concentration at 1 h [1, 8]: 3.91 µM and 1520 ng/mL
concentration at 1 h [1, 9]: 3.29 µM and 1600 ng/mL
concentration at 2 h [1, 10]: 3.06 µM and 1080 ng/mL
concentration at 2 h [1, 11]: 2.39 µM and 846 ng/mL
concentration at 30 min ([1]; 100 mg/kg i.p., 30 min): 4.8 ± 0.612 µM
concentration at 60 min ([1]; 100 mg/kg i.p., 60 min): 3.91 ± 0.674 µM
concentration at 120 min ([1]; 100 mg/kg i.p., 120 min): 3.06 ± 0.578 µM
concentration at 30 min ([1]; intraperitoneal, 30 min): 1690 ± 216 ng/mL
concentration at 60 min ([1]; intraperitoneal, 60 min): 1520 ± 158 ng/mL
concentration at 120 min ([1]; intraperitoneal, 120 min): 1080 ± 202 ng/mL
Cmax ([1]; 100 mg/kg i.p.): 4.8 µM
half-life ([1]; 100 mg/kg i.p.): ~1.5 h
overt toxicity ([1]; 100 mg/kg i.p.): no overt toxicity
plasma concentration ([1]; 100 mg/kg i.p., 30 min): 4.8 µM
plasma concentration ([1]; 100 mg/kg i.p., 60 min): 3.9 µM
plasma concentration ([1]; 100 mg/kg i.p., 120 min): 3.0 µM
